In patent publication US5273991A, “Imidazole-containing compositions and methods of use thereof analogs of distamycin” (Research Corporation Technologies, Inc., priority 1992, dated 1993):

Test system: CCRF-DEM
Test: NCI cytotoxicity screen (SRB)
Assay type: cell-based, human
Details: 48 h; Leukemia CCRF-DEM

How did the IC50 turn out when `CN(C)CCNC(=O)c1nc(NC(=O)c2nc(NC(=O)c3nc(NC(=O)CCCc4ccc(N(CCCl)CCCl)cc4)cn3C)cn2C)cn1C` [Compound 10, N-(N',N'-dimethylaminoethyl)-1-methyl-4-{1-methyl-4-[4-(4,4-bis(2-chloroethyl)aminophenyl-1-butanamido)-1-methylimidazole-2-carboxamido]imidazole-2-carboxamido}imidazole-2-carboxamide] was run?
The IC50 was 9.67 µM.
